Assay in all cases: NCI tumour cell line growth inhibition, 48 h
Assay [1] deals with EKVX NSCLC.
In assay [2] the test system is SR leukemia.
Assay [3] deals with HCT-15 colon.
In assay [4] the test system is SK-MEL-5 melanoma.
Assay [5] deals with SK-MEL-28 melanoma.
The subject of assay [6] is UACC-62 melanoma.
Assay [7] concerns SF-295 CNS.
In assay [8] the test system is MDA-N.
Assay [9] relates to NCI-H460 lung.
The subject of assay [10] is HL-60(TB) leukemia.
The subject of assay [11] is KM12 colon.
The test system of assay [12] is SK-MEL-2 melanoma.

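Tested at 5 concentrations; 48 h exposure; 96-well plates; endpoints linearly interpolated, else capped at highest concentration. TGI denotes the concentration required for complete inhibition of growth.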

As to `COc1ccc2nc(-c3ccccc3)c(=O)[nH]c2c1`, the TGI in assay [1], in [2], in [3], in assay [4], in [5] and in [6] was over 100 µM each time. Also, the TGI in assay [7], in [8], in [9] and in assay [10] was over 100 µM each time.

Regarding `N[C@H](Cc1ccc2oc3cc(=O)c4ccccc4c-3nc2c1)C(=O)O`, the TGI in [1] was over 100 µM; in [2] it was over 100 µM; in assay [3], over 100 µM; in assay [4] it was 41.1 µM; in [5] it was over 100 µM; in assay [6], 62 µM. Also, the TGI in [11] is over 100 µM; in [7], over 100 µM; in assay [8], 38.1 µM; in assay [9], over 100 µM; in assay [10], over 100 µM.

With `C/C=C\C(CC(=O)NCC(=O)c1c[nH]c2ccccc12)CC(=O)OC` (stereo not given), the TGI in assay [1], in [2], in assay [3], in [4], in assay [5] and in assay [6] was over 100 µM each time. Moreover, the TGI in [11], in [7], in [8], in assay [9] and in assay [12] was over 100 µM throughout.

For the compound `CC(=O)c1c(N=[N+]=[N-])c2cccc3c2n(c1=O)CCC3`, the TGI in assay [1] is 54.1 µM; in assay [2], over 100 µM; in [3], 47.4 µM; in [4], 28.5 µM; in [6], 35.1 µM; in assay [11], 28.7 µM. Further, the TGI in [7] came to 60 µM; in [8], 44.5 µM; in assay [9], 35.1 µM; in assay [12] it was 75.2 µM.

On to `CC(NC(=O)c1c(O)[nH]c(=S)[nH]c1=O)c1ccc([N+](=O)[O-])cc1` (stereo not given), for which the TGI in assay [1], in [3], in [4], in [5], in assay [6] and in [11] was over 100 µM in each case. The TGI in assay [7], in assay [8], in [9], in assay [12] and in assay [10] was over 100 µM throughout.

For the compound `COc1cccc(-c2nc(-c3cnccn3)n(C/C=C/c3ccccc3)n2)c1`, the TGI in [1], in assay [2], in assay [3], in assay [6], in assay [11] and in assay [7] was over 10 µM throughout. Also, the TGI in assay [8], in assay [9] and in assay [12] was over 10 µM in each case.

`CCOC(=O)c1ccc(-c2ccc(Cl)cc2)[nH]1`: the TGI in assay [1], in assay [2], in [3], in assay [4], in assay [6] and in assay [11] was over 10 µM each time. In addition, the TGI in assay [7], in assay [8], in assay [9], in assay [12] and in assay [10] was over 10 µM in each case.

Turning to `COC(=O)C1=C(OC)[C@H]2C#C/C=C\C#C[C@@H]3Nc4c(cc(O)c5c4C(=O)c4ccccc4C5=O)[C@]24O[C@@]34[C@H]1C`, the TGI is 0.0335 µM in assay [1]; under 0.01 µM in assay [2]; 0.0147 µM in [3]; under 0.0149 µM in assay [4]; under 0.01 µM in assay [6]; 0.0475 µM in assay [11]. Further, the TGI in [7] is under 0.01 µM; in assay [8], 0.0113 µM; in assay [9], over 100 µM; in [12], 0.206 µM; in assay [10], under 0.01 µM.

Consider `COc1cc(Nc2nc3cc(C(F)(F)F)ccc3nc2C(=O)O)cc(OC)c1OC`, for which the TGI in assay [1], in assay [3], in assay [4], in [5], in [6] and in assay [11] was over 100 µM throughout. The TGI is 67.8 µM in assay [7]; over 100 µM in assay [8]; over 100 µM in [9]; 38.9 µM in assay [12]; over 100 µM in [10].

For the compound `COc1ccc(/C(Cl)=C(\C#N)c2ccc(OC)c(OC)c2)cc1OC`, the TGI in [1] was 94 µM; in assay [2], over 100 µM; in assay [3], over 100 µM; in assay [4] it was over 100 µM; in assay [6] it was over 100 µM; in [7], over 100 µM. Further, the TGI in assay [8], in assay [9], in [12] and in assay [10] was over 100 µM in each case.

Consider `CCCCC1Cc2cc(O)ccc2-c2nc3cc(O)ccc3n21` (stereo not given) (tested in a mixture with another compound), for which the TGI in assay [1] was determined as 51.9 µM; in [2], 34 µM; in assay [3], 25 µM; in assay [4], 26.3 µM; in assay [6] it was 25.5 µM; in assay [11], 75.1 µM. The TGI in [7] amounted to 33.4 µM; in assay [8], 36.3 µM; in [9], 32.9 µM; in assay [10], 41.9 µM.

Take `NC1(CCNC(=O)c2ccccc2)CCN(C(=O)c2ccccc2)CC1`: the TGI in assay [1], in assay [2], in assay [3], in [4], in [6] and in assay [11] was over 100 µM each time. Moreover, the TGI in assay [7], in assay [8], in assay [9] and in assay [12] was over 100 µM each time.

Turning to `O=C1CC(=O)NC(=NN2C(=O)/C(=C/c3ccc(Cl)c(Cl)c3)N=C2c2ccccc2)N1`, the TGI in assay [2] was 36.3 µM; in assay [3] it was over 100 µM; in assay [4], 30.3 µM; in assay [5], 78 µM; in assay [6], 32.6 µM; in assay [11], 40.1 µM. Moreover, the TGI in assay [7] was over 100 µM; in assay [8], 90.7 µM; in [9], 74.9 µM; in [12], 34.4 µM.

The record behind these values is PubChem BioAssay (NCI).
